# In PMC3004258, “Structure of the inhibitor complex of old yellow enzyme from Trypanosoma cruzi” (Journal of Synchrotron Radiation, 2010):
# Biological target: T1, TcOYE (old yellow enzyme from Trypanosoma cruzi; PGF2alpha synthase) (Trypanosoma cruzi, UniProt Q8I6L9)
# T1 construct: gene TcPGFS; recombinant, overexpressed in E. coli and purified; 2 molecules per asymmetric unit; residues up to at least 379
# T1 sequence (Q8I6L9 1-379): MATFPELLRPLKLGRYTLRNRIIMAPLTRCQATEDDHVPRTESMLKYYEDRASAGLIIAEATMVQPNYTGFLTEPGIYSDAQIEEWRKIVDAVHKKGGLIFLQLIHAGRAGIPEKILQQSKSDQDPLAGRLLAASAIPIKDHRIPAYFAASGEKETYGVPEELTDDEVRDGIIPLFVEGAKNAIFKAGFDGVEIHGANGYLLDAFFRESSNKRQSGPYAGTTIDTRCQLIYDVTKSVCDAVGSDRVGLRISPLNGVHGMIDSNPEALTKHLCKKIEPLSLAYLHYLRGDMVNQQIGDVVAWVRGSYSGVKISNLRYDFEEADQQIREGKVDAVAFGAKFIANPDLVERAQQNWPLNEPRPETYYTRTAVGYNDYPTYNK
# Assay: X-ray crystallography, […] Å
# Assay type: binding
# Settings: TcOYE/FMN binary complex; prosthetic group at C-terminal ends of barrel strands
structure (smiles),measurement,value
Cc1cc2nc3c(=O)[nH]c(=O)nc-3n(C[C@H](O)[C@H](O)[C@H](O)COP(=O)(O)O)c2cc1C [FMN],"X-ray crystallography, 1.7 Å",The structure of TcOYE/FMN binary complex was determined by molecular replacement methods
